Reference: ChEMBL document CHEMBL4507294, “Data for DCP probe MSD-CYP11B2” (2021)

Tests used:
[1] = biological target: T1, Alpha-2B adrenergic receptor (Homo sapiens, UniProt P18089); assay: GPCRScan assay: inhibition of Alpha2B; set-up: radioligand conc. used [nm] 1.5 – 2.0, parental cells HEKT
T1 sequence (P18089 whole entry): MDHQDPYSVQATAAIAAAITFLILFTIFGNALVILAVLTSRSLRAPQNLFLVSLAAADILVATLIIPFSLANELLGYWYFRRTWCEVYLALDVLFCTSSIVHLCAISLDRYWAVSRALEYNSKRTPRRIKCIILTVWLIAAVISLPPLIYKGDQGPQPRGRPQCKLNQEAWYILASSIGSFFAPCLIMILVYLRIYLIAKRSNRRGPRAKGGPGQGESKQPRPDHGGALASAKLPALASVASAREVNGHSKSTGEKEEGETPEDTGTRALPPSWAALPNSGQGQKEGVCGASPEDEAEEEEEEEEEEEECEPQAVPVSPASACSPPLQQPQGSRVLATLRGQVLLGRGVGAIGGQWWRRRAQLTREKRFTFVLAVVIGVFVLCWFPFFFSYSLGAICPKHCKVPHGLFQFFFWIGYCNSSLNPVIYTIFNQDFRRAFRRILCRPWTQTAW

[2] = biological target: T2, Beta-1 adrenergic receptor (Homo sapiens, UniProt P08588); assay: Inhibition of Adrenergic beta1 at compound concentration of 10.0 uM in the Eurofins-Panlabs radioligand binding assay (Eurofins_assay_204010); set-up: ligand concentration 0.03 nM, non-specific ligand with concentration 100 uM S(-)-Propranolol, incubation time 2 h, incubation temperature 25 C
Target sequence in this assay (P08588 whole entry): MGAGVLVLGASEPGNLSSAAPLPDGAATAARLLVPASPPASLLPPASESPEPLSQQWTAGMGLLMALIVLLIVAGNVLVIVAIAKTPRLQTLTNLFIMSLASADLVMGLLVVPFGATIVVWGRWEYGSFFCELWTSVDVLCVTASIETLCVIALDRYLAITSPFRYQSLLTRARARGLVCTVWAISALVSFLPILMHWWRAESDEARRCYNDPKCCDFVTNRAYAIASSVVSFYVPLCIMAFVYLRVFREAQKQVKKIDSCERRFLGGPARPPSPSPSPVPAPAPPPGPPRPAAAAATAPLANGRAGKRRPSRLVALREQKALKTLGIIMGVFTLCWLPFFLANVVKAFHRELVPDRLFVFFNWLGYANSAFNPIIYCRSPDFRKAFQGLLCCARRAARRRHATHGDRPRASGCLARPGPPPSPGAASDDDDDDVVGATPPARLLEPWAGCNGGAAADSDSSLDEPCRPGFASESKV

Rattus norvegicus [3] = species on record: Rattus norvegicus; assay: Inhibition of Glutamate, NMDA, Phencyclidine at 10 µM in the Eurofins-Panlabs radioligand binding assay (Eurofins_assay_233000); assay type: protein-complex assay; settings: Compound concentration 10.0 uM
[4] = biological target: 5-hydroxytryptamine receptor 2B (Homo sapiens, UniProt P41595); assay: Inhibition of Serotonin (5-Hydroxytryptamine) 5-HT2B at compound concentration of 10.0 uM in the Eurofins-Panlabs radioligand binding assay (Eurofins_assay_271700); set-up: ligand concentration 1.2 nM, non-specific ligand with concentration 10 uM Serotonin (5-HT), incubation time 60 min, incubation temperature 37 C
[5] = biological target: T1, Alpha-2B adrenergic receptor; assay: Inhibition of Adrenergic alpha2B at compound concentration of 10.0 uM in the Eurofins-Panlabs radioligand binding assay (Eurofins_assay_203710); set-up: ligand concentration 2.5 nM, non-specific ligand with concentration 10 uM Prazosin, incubation time 60 min, incubation temperature 25 C
[6] = biological target: Melanocortin receptor 4 (Homo sapiens) (UniProt P32245); assay: Inhibition of Melanocortin MC4 at 10 µM in the Eurofins-Panlabs radioligand binding assay (Eurofins_assay_251350); set-up: ligand concentration 0.02 nM; settings: Compound concentration 10.0 uM
Homo sapiens = species on record: Homo sapiens; assay: Glutamate, Metabotropic, mGlu5 Eurofins-Panlabs radioligand binding assay; settings: Compound concentration 10.0 uM
Rattus norvegicus [7] = species on record: Rattus norvegicus; assay: Glutamate, NMDA, Polyamine Eurofins-Panlabs radioligand binding assay; assay type: protein-complex assay; set-up: ligand concentration 2 nM; settings: Compound concentration 10.0 uM
[8] = biological target: Peroxisome proliferator-activated receptor gamma (Homo sapiens) (UniProt P37231); assay: PPARgamma Eurofins-Panlabs radioligand binding assay; set-up: ligand concentration 5 nM, non-specific ligand with concentration 0.5 µM L-797773, incubation time 18 h, incubation temperature 15 °C; settings: Compound concentration 10.0 uM
[9] = biological target: T2, Beta-1 adrenergic receptor; assay: Panlabs assay (ADRB1); set-up: compound concentration 10 uM
Target sequence in this assay (P08588 whole entry): as above

[10] = biological target: T3, GABA-A receptor; anion channel (Rattus norvegicus) (UniProt O09028+P15431+P18506+P18508+P19969+P20236+P23574+P23576+P28471+P28473+P30191+P62813+P63079+P63138+Q91ZM7+Q9ES14); settings: Compound concentration 10.0 uM
[11] = biological target: Histamine H3 receptor (Homo sapiens) (UniProt Q9Y5N1); settings: Compound concentration 10.0 uM
[12] = biological target: Alpha-1A adrenergic receptor (Homo sapiens) (UniProt P35348); settings: Compound concentration 10.0 uM
[13] = biological target: Muscarinic acetylcholine receptor M4 (Homo sapiens) (UniProt P08173); settings: Compound concentration 10.0 uM
[14] = biological target: T2, Beta-1 adrenergic receptor
Target sequence in this assay (P08588 whole entry, looked up): as the sequence (P08588 whole entry) above

[15] = biological target: Estrogen receptor (Homo sapiens) (UniProt P03372); settings: Compound concentration 10.0 uM
[16] = biological target: Glutamate NMDA receptor (Rattus norvegicus) (UniProt P35439+Q00959+Q00960+Q00961+Q62645+Q8VHN2+Q9R1M7); settings: Compound concentration 10.0 uM
[17] = biological target: T4, Alpha-2B adrenergic receptor (Homo sapiens) (UniProt P18089)
T4 sequence (whole entry): T1 sequence (P18089 whole entry)

[18] = biological target: T3, GABA-A receptor; anion channel (Rattus norvegicus); settings: Compound concentration 10.0 uM; remark: listed apart in the source
[19] = biological target: Glutamate receptor 2 (Homo sapiens) (UniProt P42262); settings: Rattus norvegicus; Compound concentration 10.0 uM
[20] = biological target: T5, 5-hydroxytryptamine receptor 2C (Homo sapiens) (UniProt P28335); settings: Compound concentration 10.0 uM
T5 sequence (whole entry): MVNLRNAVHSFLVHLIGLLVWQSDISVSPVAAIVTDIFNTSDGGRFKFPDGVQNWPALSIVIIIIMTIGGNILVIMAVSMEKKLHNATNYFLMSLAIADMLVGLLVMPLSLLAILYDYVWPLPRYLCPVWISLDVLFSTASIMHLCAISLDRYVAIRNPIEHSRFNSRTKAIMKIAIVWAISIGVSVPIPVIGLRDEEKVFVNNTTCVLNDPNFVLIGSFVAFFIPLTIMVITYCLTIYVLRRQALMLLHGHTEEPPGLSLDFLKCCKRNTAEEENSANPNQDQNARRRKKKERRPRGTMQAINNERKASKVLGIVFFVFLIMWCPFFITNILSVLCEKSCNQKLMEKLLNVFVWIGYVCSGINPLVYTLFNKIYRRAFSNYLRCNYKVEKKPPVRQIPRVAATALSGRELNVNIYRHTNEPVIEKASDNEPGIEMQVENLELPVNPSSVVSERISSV

[21] = biological target: Gamma-aminobutyric acid type B receptor subunit 1 (Homo sapiens) (UniProt Q9UBS5); settings: Rattus norvegicus; Compound concentration 10.0 uM
[22] = biological target: 5-hydroxytryptamine receptor 6 (Homo sapiens, UniProt P50406); assay: GPCRScan assay: inhibition of 5-HT6; set-up: radioligand conc. used [nm] 2.0 – 4.0, parental cells stable HEK
[23] = biological target: Cytochrome P450 11B2, mitochondrial (Homo sapiens, UniProt P19099); assay: Assay using V79 cell lines (CYP11B2); assay type: cell-based
[24] = biological target: Cytochrome P450 11B1, mitochondrial (Homo sapiens, UniProt P15538); assay: Assay using V79 cell lines (CYP11B1); assay type: cell-based
[25] = biological target: Delta-type opioid receptor (Homo sapiens) (UniProt P41143); settings: Compound concentration 10.0 uM
Sequence of Delta-type opioid receptor (Homo sapiens) (P41143 whole entry): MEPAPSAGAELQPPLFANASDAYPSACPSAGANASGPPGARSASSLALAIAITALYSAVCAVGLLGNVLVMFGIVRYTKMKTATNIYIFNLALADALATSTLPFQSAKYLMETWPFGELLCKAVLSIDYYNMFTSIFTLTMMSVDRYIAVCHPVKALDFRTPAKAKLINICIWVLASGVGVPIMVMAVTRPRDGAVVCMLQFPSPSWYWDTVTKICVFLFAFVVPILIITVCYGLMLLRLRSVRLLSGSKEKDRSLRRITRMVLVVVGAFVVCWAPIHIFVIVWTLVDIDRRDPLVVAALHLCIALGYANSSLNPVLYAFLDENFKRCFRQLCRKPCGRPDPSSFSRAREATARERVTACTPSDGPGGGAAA

Sequence of 5-hydroxytryptamine receptor 2B (P41595 whole entry): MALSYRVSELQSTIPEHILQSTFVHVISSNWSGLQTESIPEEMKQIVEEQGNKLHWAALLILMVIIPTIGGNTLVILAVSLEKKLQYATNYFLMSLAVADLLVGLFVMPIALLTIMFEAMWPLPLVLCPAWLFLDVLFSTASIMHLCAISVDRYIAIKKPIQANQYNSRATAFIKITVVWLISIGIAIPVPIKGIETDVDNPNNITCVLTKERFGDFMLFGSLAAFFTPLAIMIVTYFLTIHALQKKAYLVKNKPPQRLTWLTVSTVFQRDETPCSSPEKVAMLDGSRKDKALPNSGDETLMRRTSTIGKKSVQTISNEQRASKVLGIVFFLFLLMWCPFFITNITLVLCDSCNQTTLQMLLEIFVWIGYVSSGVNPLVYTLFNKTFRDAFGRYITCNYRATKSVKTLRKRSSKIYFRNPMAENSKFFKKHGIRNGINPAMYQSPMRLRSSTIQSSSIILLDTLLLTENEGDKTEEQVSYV
Sequence of Peroxisome proliferator-activated receptor gamma (Homo sapiens) (P37231 whole entry): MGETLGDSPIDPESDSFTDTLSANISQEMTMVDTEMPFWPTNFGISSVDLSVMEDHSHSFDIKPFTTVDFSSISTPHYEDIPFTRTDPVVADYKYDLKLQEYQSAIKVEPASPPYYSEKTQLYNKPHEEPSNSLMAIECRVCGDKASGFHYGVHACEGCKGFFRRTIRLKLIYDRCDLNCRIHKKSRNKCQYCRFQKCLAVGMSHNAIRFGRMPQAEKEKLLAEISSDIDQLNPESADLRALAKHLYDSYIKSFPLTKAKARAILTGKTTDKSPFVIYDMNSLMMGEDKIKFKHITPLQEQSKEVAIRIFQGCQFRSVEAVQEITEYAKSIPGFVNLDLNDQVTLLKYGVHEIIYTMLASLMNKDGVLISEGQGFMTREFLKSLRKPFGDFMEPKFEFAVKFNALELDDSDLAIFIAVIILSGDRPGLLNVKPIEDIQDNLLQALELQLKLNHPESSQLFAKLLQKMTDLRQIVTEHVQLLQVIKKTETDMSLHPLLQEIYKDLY
Sequence of Alpha-1A adrenergic receptor (Homo sapiens) (P35348 whole entry): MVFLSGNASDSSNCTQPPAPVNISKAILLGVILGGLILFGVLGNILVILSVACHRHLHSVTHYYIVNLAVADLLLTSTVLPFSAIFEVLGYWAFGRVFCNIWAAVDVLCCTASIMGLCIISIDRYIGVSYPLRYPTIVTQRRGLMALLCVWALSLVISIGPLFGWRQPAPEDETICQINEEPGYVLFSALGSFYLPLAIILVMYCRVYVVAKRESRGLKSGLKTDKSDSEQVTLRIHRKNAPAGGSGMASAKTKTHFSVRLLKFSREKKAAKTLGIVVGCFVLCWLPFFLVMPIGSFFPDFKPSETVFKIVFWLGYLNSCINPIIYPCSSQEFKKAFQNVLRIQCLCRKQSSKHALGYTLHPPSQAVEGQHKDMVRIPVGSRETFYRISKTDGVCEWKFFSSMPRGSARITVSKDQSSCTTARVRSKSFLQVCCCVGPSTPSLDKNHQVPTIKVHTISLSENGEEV
Sequence of Melanocortin receptor 4 (Homo sapiens) (P32245 whole entry): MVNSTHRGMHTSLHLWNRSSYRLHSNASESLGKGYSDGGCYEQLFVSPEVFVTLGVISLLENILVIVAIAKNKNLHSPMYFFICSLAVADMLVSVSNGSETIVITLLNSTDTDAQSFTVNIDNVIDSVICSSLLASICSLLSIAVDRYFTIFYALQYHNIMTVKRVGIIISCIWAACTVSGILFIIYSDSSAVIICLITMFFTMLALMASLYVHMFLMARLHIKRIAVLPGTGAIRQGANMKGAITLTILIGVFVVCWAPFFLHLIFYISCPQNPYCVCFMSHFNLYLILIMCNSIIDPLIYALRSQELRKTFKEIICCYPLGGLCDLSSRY
Sequence of Cytochrome P450 11B2, mitochondrial (P19099 whole entry): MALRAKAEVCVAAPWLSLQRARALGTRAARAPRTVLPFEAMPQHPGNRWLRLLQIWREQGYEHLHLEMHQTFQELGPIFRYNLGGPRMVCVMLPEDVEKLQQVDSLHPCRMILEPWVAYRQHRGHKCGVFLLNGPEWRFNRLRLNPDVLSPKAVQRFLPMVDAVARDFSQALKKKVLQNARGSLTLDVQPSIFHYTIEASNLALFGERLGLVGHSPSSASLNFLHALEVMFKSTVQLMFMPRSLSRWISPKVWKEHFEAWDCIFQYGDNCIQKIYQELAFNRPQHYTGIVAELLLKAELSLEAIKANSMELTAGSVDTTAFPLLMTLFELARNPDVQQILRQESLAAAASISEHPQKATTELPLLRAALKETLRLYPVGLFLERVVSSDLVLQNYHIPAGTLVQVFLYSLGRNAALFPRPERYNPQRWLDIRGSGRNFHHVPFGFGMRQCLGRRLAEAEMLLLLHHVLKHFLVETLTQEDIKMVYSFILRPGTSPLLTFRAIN
Sequence of Cytochrome P450 11B1, mitochondrial (P15538 whole entry): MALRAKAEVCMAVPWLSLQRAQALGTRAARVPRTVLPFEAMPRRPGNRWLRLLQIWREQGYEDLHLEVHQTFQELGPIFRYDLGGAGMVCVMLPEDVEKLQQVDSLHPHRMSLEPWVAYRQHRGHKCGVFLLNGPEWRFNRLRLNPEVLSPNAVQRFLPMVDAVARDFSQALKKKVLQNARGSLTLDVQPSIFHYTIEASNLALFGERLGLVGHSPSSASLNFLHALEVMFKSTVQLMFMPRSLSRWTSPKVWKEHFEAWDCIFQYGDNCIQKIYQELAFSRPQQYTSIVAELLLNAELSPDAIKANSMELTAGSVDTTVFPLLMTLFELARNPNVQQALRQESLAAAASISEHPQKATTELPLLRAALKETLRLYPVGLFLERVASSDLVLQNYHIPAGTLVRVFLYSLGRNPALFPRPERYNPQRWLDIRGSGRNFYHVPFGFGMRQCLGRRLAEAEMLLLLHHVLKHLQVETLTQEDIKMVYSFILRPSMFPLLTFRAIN
Sequence of Glutamate receptor 2 (Homo sapiens) (P42262 whole entry): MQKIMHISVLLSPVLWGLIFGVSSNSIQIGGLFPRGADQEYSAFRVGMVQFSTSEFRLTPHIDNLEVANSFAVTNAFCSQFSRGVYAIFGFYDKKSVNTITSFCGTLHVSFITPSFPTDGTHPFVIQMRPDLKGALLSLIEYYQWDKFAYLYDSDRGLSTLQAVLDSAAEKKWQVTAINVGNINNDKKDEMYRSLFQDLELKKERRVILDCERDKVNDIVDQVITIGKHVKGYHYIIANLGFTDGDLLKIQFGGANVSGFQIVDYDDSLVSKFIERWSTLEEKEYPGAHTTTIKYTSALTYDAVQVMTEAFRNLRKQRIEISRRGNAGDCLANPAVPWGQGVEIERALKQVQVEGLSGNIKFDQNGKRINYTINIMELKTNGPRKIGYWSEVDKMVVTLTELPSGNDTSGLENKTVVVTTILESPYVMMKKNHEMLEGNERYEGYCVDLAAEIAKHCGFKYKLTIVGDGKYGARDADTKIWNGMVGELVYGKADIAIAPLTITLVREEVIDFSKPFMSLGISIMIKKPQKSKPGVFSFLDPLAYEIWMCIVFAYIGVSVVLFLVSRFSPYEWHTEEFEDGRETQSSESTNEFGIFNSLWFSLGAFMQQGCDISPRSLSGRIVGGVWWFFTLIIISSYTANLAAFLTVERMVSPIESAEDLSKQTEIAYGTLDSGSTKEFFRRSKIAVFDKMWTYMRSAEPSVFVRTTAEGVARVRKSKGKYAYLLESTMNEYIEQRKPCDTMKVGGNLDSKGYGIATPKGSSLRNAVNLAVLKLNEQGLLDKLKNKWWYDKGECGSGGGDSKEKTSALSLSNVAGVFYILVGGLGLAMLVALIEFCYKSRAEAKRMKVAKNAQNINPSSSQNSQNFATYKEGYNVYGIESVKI

CC(C)(O)c1cncc(-c2nc3ccc(F)cc3n2C2CC2)c1 [MSD-CYP11B2]
Ki [1]: 1.44 µM
IC50 [2]: 9.62 µM
Ki [2]: 5.55 µM
inhibition (Rattus norvegicus [3]): 3%
IC50 [4]: 5.33 µM
Ki [4]: 3.39 µM
IC50 [5]: 4.7 µM
Ki [5]: 2.15 µM
inhibition [6]: -1%
inhibition (Homo sapiens): 25%
inhibition (Rattus norvegicus [7]): -3%
inhibition [8]: 8%
IC50 [9]: 9.62 µM
inhibition [10]: 6.26%
inhibition [11]: -4.55%
inhibition [12]: -3.03%
inhibition [13]: -0.57%
inhibition ([14]; Compound concentration 0.01 uM): 5%
inhibition ([14]; Compound concentration 0.1 uM): -1%
inhibition ([14]; Compound concentration 1.0 uM): 9%
inhibition ([14]; Compound concentration 10.0 uM): 51%
inhibition [15]: 1%
inhibition [16]: -1%
inhibition ([17]; Compound concentration 0.1 uM): 9%
inhibition ([17]; Compound concentration 1.0 uM): 20%
inhibition ([17]; Compound concentration 10.0 uM): 65%
inhibition [18]: 16%
inhibition [19]: 22%
inhibition [20]: 11%
inhibition [21]: 6%

FC(F)(F)c1ccc2c(c1)nc(-c1cccnc1)n2C1CC1 [MSD-CYP11B2-Negative-control]
Ki [22]: 3.06 µM
IC50 [23]: > 10 µM (not active)
IC50 [24]: > 10 µM (not active)
inhibition [25]: -9.33%
